Experimental findings from US12195804B2, “Treatment of squamous cell carcinoma” (Board of Regents, The University of Texas System, priority 2018, dated 2025) are described below.

SMILES strings stand for the structures.

Test [1] relates to HN31 and UM22A orthotopic xenografts. The experiment in a line: Orthotopic tongue xenograft models of NOTCH1MUT HNSCC. It counts as in vivo, athymic nude mice. On the procedure: FIGS. 8A-8D: PI3K/mTOR pathway inhibitors cause apoptosis and reduce tumor size in NOTCH1^MUT head and neck squamous cell carcinoma (HNSCC) in vivo. FIGS. 8A and 8B. The NOTCH1^MUT cell lines HN31 (FIG. 8A) and UMSCC22A (UM22A; FIG. 8B) were injected subcutaneously (SQ) into athymic nude mice. After tumors reached 150 mm^3, the mice were randomized to receive either vehicle control (2-hydroxypropyl-β-cyclodextrin) or 1 mg/kg GSK2126458 (GSK212) by oral gavage daily for 28 days. Tumor sizes were measured and tumor volumes were calculated at the indicated times, and the percent change in tumor volume at the end of therapy was calculated using the formula (final tumor volume−initial tumor volume/initial tumor volume)×100%. The percentages of TUNEL-positive cells were calculated from image quantification at 40× magnification. FIGS. 8C and 8D. HN31 (FIG. 8C) and UM22A (FIG. 8D) were implanted orthotopically (OT) into the anterior tongues of athymic nude mice. […] Tumor sizes were measured, and tumor volumes and percent changes in tumor volumes were calculated as above. […] The percentages of TUNEL-positive cells were calculated as described above. Data are means±standard deviations from 5 mice per group; p values were calculated using an unpaired t-test with the Welch correction. […]

For a further test, the system named is UMSCC49 cells. Briefly: CellTiter-Glo viability, UMSCC49 parental and NOTCH1 KO. The settings on record: 72 hours. The class given is cell-based, human. On the procedure:
FIGS. 9A-9D: NOTCH1 knockout (KO) sensitizes two NOTCH1^WT head and neck squamous cell carcinoma (HNSCC) cell lines to PI3K/mTOR pathway inhibition in vitro. Two NOTCH1^WT HNSCC cell lines (PJ34 and UMSCC49 [UM49]), parental cell lines, and NOTCH1 KO cell lines were treated with PI3K/mTOR pathway inhibitors. FIG. 9A. The CellTiter-Glo assay was used to assess the viability of cells treated for 72 hours with the indicated concentrations of GSK2126458 (GSK212). FIG. 9B. Western blot analysis of apoptosis markers, NOTCH1, and NOTCH intracellular domain (NICD) was performed after treatment with the indicated concentrations of GSK212 for 48 hours. FIG. 9C. Apoptosis in cells treated with 50 nM GSK212 or 200 nM BEZ235 for 48 hours was measured using an Annexin V/propidium iodide assay. Values are the means±standard deviations of three independent experiments. *p<0.05, unpaired two-tailed Student t-test. FIG. 9D. […] Colony areas as percentages of the control were measured using ImageJ. […]
Cell viability assay. […] Inhibitory concentration (ICs) and area under the curve (AUC) values were calculated using the drexplorer R package with a best-fit dose-response model (Zumsteg et al., 2016). The combination indices were calculated using the Chou-Talalay method (Cal et al., 2017) in CalcuSyn (Biosoft, Cambridge, UK). […]
Background: In ATP-based viability assays light output follows the ATP content of the culture.

Take `COc1ncc(-c2ccc3nccc(-c4ccnnc4)c3c2)cc1NS(=O)(=O)c1ccc(F)cc1F` [GSK2126458]: the “tumor size compared with vehicle” value in test [1] (3 mg/kg oral gavage daily 28 days) is listed as “significantly reduced tumor size”. In addition, in test [1] (3 mg/kg oral gavage, end of treatment), the “apoptosis in tumors (TUNEL staining)” value is recorded as “underwent apoptosis”. Also, the IC70 (usually the point of the concentration-response curve where the effect stands at 70%) with UMSCC49 cells (UMSCC49 NOTCH1 KO) stood at 360 nM; with UMSCC49 cells (UMSCC49 parental) it was 1480 nM.
